Data published in PubChem BioAssay (NCI).
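96-well plates; 48 h exposure; 5 concentrations. Endpoints by linear interpolation between flanking doses. Not reached: highest tested concentration assigned. At the GI50, growth is halved. At the TGI there is no net growth.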

Legend:
Assay in all cases: NCI anticancer screen, dose series, 48 h
786-0 renal = tested on: 786-0 renal
SF-295 CNS = tested on: SF-295 CNS
UO-31 renal = tested on: UO-31 renal
SK-OV-3 ovarian = tested on: SK-OV-3 ovarian
HCT-15 colon = tested on: HCT-15 colon
MALME-3M melanoma = tested on: MALME-3M melanoma
SR leukemia = tested on: SR leukemia
A498 renal = tested on: A498 renal
MCF7 breast = tested on: MCF7 breast
BT-549 breast = tested on: BT-549 breast

Structure (SMILES)	TGI (786-0 renal)	TGI (SF-295 CNS)	TGI (UO-31 renal)	TGI (SK-OV-3 ovarian)	TGI (HCT-15 colon)	TGI (MALME-3M melanoma)	TGI (SR leukemia)	TGI (A498 renal)	TGI (MCF7 breast)	TGI (BT-549 breast)	GI50 (786-0 renal)	GI50 (SK-OV-3 ovarian)	GI50 (UO-31 renal)	GI50 (HCT-15 colon)	GI50 (MALME-3M melanoma)	GI50 (MCF7 breast)	GI50 (SR leukemia)	GI50 (BT-549 breast)	GI50 (SF-295 CNS)	GI50 (A498 renal)
CC(C)N(O)C(=N)c1ccccc1	> 100 µM	> 100 µM	> 100 µM																	
O=C(O)/C(Cl)=C(\Cl)C(=O)c1ccccc1	> 100 µM	> 100 µM	> 100 µM	> 100 µM	> 100 µM	> 100 µM	> 100 µM	> 100 µM												
O=c1c2ccc(S(=O)(=O)c3ccc4c(=O)n5c6ccccc6nc5c5cccc3c45)c3cccc(c32)c2nc3ccccc3n12	> 100 µM	53.2 µM	> 100 µM	31.6 µM	> 100 µM	> 100 µM			> 100 µM	50.5 µM										
O=C(/C=C\c1cccc2ccccc12)c1ccc(F)cc1	32.1 µM	41.1 µM	32.4 µM	58.3 µM	31.8 µM	32.1 µM		> 100 µM												
CCCCCOCC(O)CO (stereo not drawn)	> 100 µM	> 100 µM			> 100 µM	> 100 µM		> 100 µM												
Cc1ccc(-c2nc3ccccc3c(=O)n2NCC2(O)OCC(O)C(O)C2O)cc1 (stereo not drawn)	> 100 µM	> 100 µM	> 100 µM	> 100 µM	> 100 µM	> 100 µM	> 100 µM	> 100 µM												
Cc1cccc(-n2c(N)c(-c3nc4ccccc4[nH]3)sc2=S)c1	54.1 µM	68.1 µM	87.8 µM	91.7 µM	62.3 µM	74.4 µM		> 100 µM												
COc1ccc(/C=C2\CN(C(=O)C(Cl)Cl)C/C(=C\c3ccc(OC)cc3)C2=O)cc1	3.86 µM		2.61 µM	> 100 µM	1.52 µM	4.61 µM	> 100 µM		1.51 µM	8.13 µM	1.88 µM	4.2 µM	1.33 µM	0.337 µM	1.92 µM	0.296 µM	0.357 µM	2.19 µM		
CN1CN(C2OC(CO)C(O)C2O)c2nc(N)[nH]c(=O)c21 (stereo not drawn)	> 100 µM	> 100 µM	> 100 µM	> 100 µM	> 100 µM	> 100 µM	> 100 µM	> 100 µM												
CCC(=O)N1C(=O)OCC1C(C)C (stereo not drawn)	> 100 µM	> 100 µM	> 100 µM	> 100 µM	> 100 µM	> 100 µM		> 100 µM												
O=C/C1=C/C2=Cc3ccccc3C=C(/C=C(/C=O)C1)C2	> 100 µM	> 100 µM	> 100 µM		> 100 µM	> 100 µM		> 100 µM												
N#CC(C(=O)C(=O)Nc1ccccc1)c1ccccc1 (stereo not drawn)	> 100 µM	> 100 µM	> 100 µM	> 100 µM	> 100 µM	> 100 µM	> 100 µM													
CCN1CCC(Nc2ccnc3cc(Cl)ccc23)CC1	> 100 µM	53.6 µM	29 µM	> 100 µM	> 100 µM	40.4 µM	28.2 µM	> 100 µM	> 100 µM		32.4 µM	> 100 µM	9.06 µM	30.1 µM	20.7 µM	28.2 µM	3.44 µM		18 µM	74.6 µM
CCC[CH2][Sn]([CH2]CCC)([O]c1cccc2cccnc12)[O]c1cccc2cccnc12	0.607 µM	0.612 µM	0.528 µM	3.33 µM	0.339 µM			3.31 µM			0.237 µM	1.91 µM	0.265 µM	0.167 µM					0.247 µM	1.75 µM
COc1cc(OC)c(C(=O)c2cccs2)cc1N	> 100 µM	> 100 µM	> 100 µM	> 100 µM	> 100 µM	> 100 µM		> 100 µM												
C[C@]12CCC(=O)C(OC(=O)c3ccc([N+](=O)[O-])cc3)=C1CCC2=O	> 100 µM	> 100 µM		> 100 µM	> 100 µM	> 100 µM	> 100 µM	> 100 µM												
O=C1C(=O)N(c2ccc(Cl)cc2)C(=O)C(=O)C1c1nc2ccccc2o1	> 100 µM	> 100 µM	> 100 µM	> 100 µM	> 100 µM	> 100 µM		> 100 µM												
N#Cc1ccc(Cc2ccccn2)cc1Cl	> 100 µM	> 100 µM	> 100 µM	> 100 µM		> 100 µM	> 100 µM													
O=C(Nc1cccc2c1C(=O)c1c(NC(=O)c3ccccc3)ccc(Nc3cccc4c3C(=O)c3ccccc3C4=O)c1C2=O)c1ccccc1	> 100 µM		> 100 µM	> 100 µM	> 100 µM	> 100 µM	> 100 µM	> 100 µM												
COc1cc(/C=C(\NC(=O)c2ccccc2)c2nc3ccc4c(c3[nH]2)C(=O)c2ccccc2C4=O)cc(OC)c1OC	> 100 µM	> 100 µM	13.5 µM	95.6 µM	> 100 µM	> 100 µM		> 100 µM												
O=S(=O)(CCN1CCOCC1)Nc1cc(-c2ccc3ncnc(Nc4ccc(F)c(Cl)c4)c3c2)cnc1Cl	> 100 µM	4.29 µM	2.13 µM	1.94 µM	28.9 µM	0.93 µM	6.96 µM		22.9 µM	2.59 µM	0.41 µM	0.286 µM	0.267 µM	1.23 µM	0.115 µM	0.335 µM	0.799 µM	0.254 µM	0.624 µM	
COC(OC)c1cc2c(cc1C=O)OCO2	> 100 µM		> 100 µM	> 100 µM		96.5 µM	> 100 µM													
COc1ccc(/C(=N\NC(=O)NN)C(c2ccc(OC)cc2)C2(O)C(=O)Nc3c(Cl)cc(Cl)cc32)cc1 (stereo not drawn)	> 100 µM	> 100 µM	> 100 µM			> 100 µM														
Oc1ccc(Nc2ccc3ccccc3c2)cc1	15.5 µM	6.29 µM	9.49 µM	> 100 µM	23.5 µM	13.4 µM	38.3 µM	23.2 µM	> 100 µM		3.78 µM	17.2 µM	1.6 µM	3.96 µM	3.45 µM	15.8 µM	3.32 µM		2.13 µM	4.1 µM
CO[C@@H]1C=C[C@@]23c4cc5c(cc4CN(C[C@@H]2O)[C@H]3C1)OCO5	> 100 µM	> 100 µM	62.2 µM	> 100 µM	> 100 µM	76 µM	77.6 µM													
